Source: patent publication US11964973B2 (priority 2019, dated 2024)
Where two headings read alike, the source gives them in different places.

How the values were obtained:
[1] = target: DGKα (Homo sapiens (Human), UniProt P23743); test: biochemical; assay type: biochemical; settings: liposome (LIPGLO) assay
[2] = target: human DGKζ (Homo sapiens (Human), UniProt Q13574); test: biochemical; assay type: biochemical; settings: liposome (LIPGLO) assay
[3] = target: Human DGKα(9-727) (Homo sapiens (Human), UniProt P23743); test: biochemical; settings: Table A; liposome (LIPGLO) assay; read-out: DGKα
[4] = test system: Human venous whole blood (IFN-γ); test: Human whole blood IFN-γ assay; assay type: cell-based
Procedure: Assay 10: Human Whole Blood IFN-γ Assay
Human venous whole blood (22.5 μL per well), obtained from healthy donors, was pre-treated with compounds for one hour at 37° C. in a humidified 95% air/5% CO2 incubator. The blood was stimulated with 2.5 μL anti-human CD3 and anti-CD28 mAb at a final concentration of 1 μg/mL each for 24 hours at 37° C. IFN-γ in the supernatants was measured using AlphLISA kit (Cat #AL217).

[5] = test system: human venous whole blood, CD8 positive population (pERK); test: DGK human whole blood pERK assay; assay type: cell-based
Summary of the method: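 Heparinized whole blood from healthy donors preincubated with compound 1 hour at 37° C. Stimulation used anti-CD3 at 1 μg/mL final plus cross-linking goat anti-mouse IgG for 15 minutes. Flow cytometry scored percentage pERK-positive cells among CD8-positive cells.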

[6] = test system: naïve human CD8 T cells; test: CellTiter-Glo CD8 T cell proliferation assay; assay type: cell-based; settings: Homo sapiens, read-out: CD8 GLO Normalized EC50
Procedure: Assay 4: CellTiter-Glo CD8 T Cell Proliferation Assay
Frozen naïve human CD8 T cells were thawed in RPMI+10% FBS, incubated for 2 h in 37° C., and counted. The 384-well tissue culture plate was coated overnight at 4° C. with 20 μl anti-human CD3 at 0.1 μg/mL in plain RPMI, which was removed off the plate before 20 k/40 μL CD8 T cells with 0.5 μg/ml soluble anti-human CD28 were added to each well. The compounds were echoed to the cell plate immediately after the cells were plated. After 72 h incubation at 37° C. incubator, 10 μL CellTiter-glo reagent (Promega catalog number G7570) was added to each well. The plate was vigorously shaken for 5 mins, incubated at room temperature for another 15 mins and read on Envision for CD8 T cell proliferation. In analysis, 0.1 μg/mL anti-CD3 and 0.5 μg/mL anti-CD28 stimulated CD8 T cell signal was background.

[7] = test system: OT-1 CD8+ T cells with SIINFEKL-loaded MC38 tumor cells; test: Murine cytotoxic T lymphocyte assay (IFN-γ); assay type: cell-based, mouse; settings: murine cytotoxic T lymphocyte, IFN-γ, read-out: msCTL INFg IC50
Excerpt: Assay 6: Murine Cytotoxic T Lymphocyte Assay
An antigen-specific cytolytic T-cell (CTL) assay was developed to evaluate functionally the ability of DGKα and DGKζ inhibitors to enhance effector T cell mediated tumor cell killing activity. CD8+ T-cells isolated from the OT-1 transgenic mouse recognize antigen presenting cells, MC38, that present the ovalbumin derived peptide […]. Recognition of the cognate antigen initiates the cytolytic activity of the OT-1 antigen-specific CD8+ T cells.
Functional CTL cells were generated as follows: OT-1 splenocytes from 8-12 week old mice were isolated and expanded in the presence of the […] peptide at 1 μg/mL and mIL2 at 10 U/mL. After three days, fresh media with […] was added. On day 5 of the expansion, the CD8+ T cells were isolated and ready for use. Activated CTL cells may be stored frozen for 6 months. Separately, one million MC38 tumor cells were pulsed with 1 μg/mL of […]-OVA peptide for 3 hours at 37° C. The cells were washed (3×) with fresh media to remove excess peptide. Finally, CTL cells that were pretreated with DGK inhibitors for 1 hour in a 96-well U bottom plate were combined with the antigen loaded MC38 tumor cells at a 1:10 ratio. The cells were then spun at 700 rpm for 5 min and placed in an incubator overnight at 37° C. After 24 hours, the supernatant was collected for analysis of IFN-γ cytokine levels by AlphaLisa purchased from Perkin Elmer.

[8] = read-out: INFg Whole Blood, human whole blood IFN-γ
[9] = read-out: DGK HWB, human whole blood pERK

Chain of human DGKζ (Q13574 whole entry, looked up): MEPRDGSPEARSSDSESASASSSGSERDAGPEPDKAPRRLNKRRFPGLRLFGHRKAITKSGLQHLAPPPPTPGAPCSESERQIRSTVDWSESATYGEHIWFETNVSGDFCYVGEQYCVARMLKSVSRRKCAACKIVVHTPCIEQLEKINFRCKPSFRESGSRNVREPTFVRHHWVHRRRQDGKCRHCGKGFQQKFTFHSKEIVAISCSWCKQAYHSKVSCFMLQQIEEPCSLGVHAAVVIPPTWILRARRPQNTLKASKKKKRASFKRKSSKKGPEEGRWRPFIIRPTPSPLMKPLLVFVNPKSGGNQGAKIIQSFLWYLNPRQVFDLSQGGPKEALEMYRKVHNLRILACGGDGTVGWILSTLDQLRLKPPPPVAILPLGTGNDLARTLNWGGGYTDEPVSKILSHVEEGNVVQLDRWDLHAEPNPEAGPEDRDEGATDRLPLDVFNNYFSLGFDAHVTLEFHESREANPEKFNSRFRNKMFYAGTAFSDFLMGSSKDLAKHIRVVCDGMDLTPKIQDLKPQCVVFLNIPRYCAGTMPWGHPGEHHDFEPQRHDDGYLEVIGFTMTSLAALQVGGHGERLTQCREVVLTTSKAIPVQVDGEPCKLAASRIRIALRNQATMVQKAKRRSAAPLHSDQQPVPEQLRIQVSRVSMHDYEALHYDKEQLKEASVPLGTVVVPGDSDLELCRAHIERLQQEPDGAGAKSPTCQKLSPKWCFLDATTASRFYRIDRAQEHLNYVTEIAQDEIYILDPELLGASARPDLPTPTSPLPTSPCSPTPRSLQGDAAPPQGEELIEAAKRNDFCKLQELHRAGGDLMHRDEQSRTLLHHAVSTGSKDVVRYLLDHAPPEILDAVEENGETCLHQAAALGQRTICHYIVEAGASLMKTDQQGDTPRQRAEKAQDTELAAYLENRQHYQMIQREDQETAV
Chain of Human DGKα(9-727) (P23743 whole entry, looked up): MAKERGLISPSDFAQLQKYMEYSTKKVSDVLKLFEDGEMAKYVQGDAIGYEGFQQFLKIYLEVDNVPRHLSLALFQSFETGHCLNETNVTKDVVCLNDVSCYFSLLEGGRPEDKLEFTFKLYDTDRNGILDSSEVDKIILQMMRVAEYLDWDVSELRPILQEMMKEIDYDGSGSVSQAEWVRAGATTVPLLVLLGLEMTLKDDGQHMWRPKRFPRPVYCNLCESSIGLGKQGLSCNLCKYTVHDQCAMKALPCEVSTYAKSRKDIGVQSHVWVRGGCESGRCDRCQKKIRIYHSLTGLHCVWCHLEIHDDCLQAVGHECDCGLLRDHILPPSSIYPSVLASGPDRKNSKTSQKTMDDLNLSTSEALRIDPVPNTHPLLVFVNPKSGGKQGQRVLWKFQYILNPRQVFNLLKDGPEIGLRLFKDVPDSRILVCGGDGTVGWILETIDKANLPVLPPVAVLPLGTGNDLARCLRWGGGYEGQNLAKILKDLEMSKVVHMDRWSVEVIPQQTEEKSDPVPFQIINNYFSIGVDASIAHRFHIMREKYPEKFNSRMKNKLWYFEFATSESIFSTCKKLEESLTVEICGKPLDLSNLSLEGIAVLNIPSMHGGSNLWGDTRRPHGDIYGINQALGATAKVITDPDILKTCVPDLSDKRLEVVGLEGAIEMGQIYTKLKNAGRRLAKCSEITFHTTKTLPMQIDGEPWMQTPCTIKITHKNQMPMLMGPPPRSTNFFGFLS
Chain of DGKα (P23743 whole entry, looked up): as above

| Structure (SMILES) | EC50 [6] [nM] | IC50 ([1]; read-out: DGKα LIPGLO IC50) [nM] | IC50 ([2]; read-out: DGKζ LIPGLO IC50) [nM] | also measured |
| --- | --- | --- | --- | --- |
| CC[C@@H]1CN(c2cc(=O)n(C)c3ccc(C#N)nc23)CC[C@H]1Oc1cccc(C(C)(C)C)c1 (single isomer, unassigned) [Example 197] | – | – | – | IC50 ([1]; Table A, read-out: DGKα): 11 nM; IC50 ([2]; Table A, read-out: DGKζ): 250 nM; IC50 [3]: 5.4 nM; EC50 [4, 8]: 570 nM; EC50 ([5]; Homo sapiens, CD8 positive, read-out: DGK HWB, human whole blood pERK): 600 nM |
| CCC(C)(C)c1ccc(O[C@@H]2CCN(c3c(C#N)c(=O)n(C)c4ccc(C#N)nc34)C[C@H]2C)cc1 (single isomer, unassigned) [Example 231, 5-methyl-8-(trans-3-methyl-4-(4-(tert-pentyl)phenoxy)piperidin-1-yl)-6-oxo-5,6-dihydro-1,5-naphthyridine-2,7-dicarbonitrile (rel)] | – | – | – | IC50 ([1]; Table A, read-out: DGKα): 490 nM; IC50 ([2]; Table A, read-out: DGKζ): 83000 nM; IC50 [3]: 1600 nM; EC50 ([4]; Homo sapiens, human whole blood IFN-γ, read-out: INFg Whole Blood): 510 nM; EC50 ([5]; Homo sapiens, CD8 positive, human whole blood pERK, read-out: DGK HWB): 400 nM |
| CC(C)Oc1ccc(OC2C[C@@H](C)N(c3nc(=O)n(C)c4ccc(C#N)nc34)C[C@H]2C)nc1 (single isomer, unassigned) [Example 244, (±)-Cis-(-4-((5-isopropoxypyridin-2-yl)oxy)-2,5-dimethylpiperidin-1-yl)-1-methyl-2-oxo-1,2-dihydropyrido[3,2-d]pyrimidine-6-carbonitrile] | – | – | – | IC50 ([2]; Table A, read-out: DGKζ): 920 nM; IC50 [3]: 320 nM; EC50 ([4]; Homo sapiens, read-out: INFg Whole Blood, human whole blood IFN-γ): 780 nM; EC50 [5, 9]: 3100 nM |
| CC(C)Oc1ccc(OC2C[C@@H](C)N(c3nc(=O)n(C)c4ccc(C#N)nc34)C[C@H]2C)nc1 (single isomer, unassigned) [Example 245, (±)-Cis-(-4-((5-isopropoxypyridin-2-yl)oxy)-2,5-dimethylpiperidin-1-yl)-1-methyl-2-oxo-1,2-dihydropyrido[3,2-d]pyrimidine-6-carbonitrile] | – | – | – | IC50 ([2]; Table A, read-out: DGKζ): 50 nM; IC50 [3]: 430 nM; EC50 [4, 8]: 410 nM; EC50 [5, 9]: 800 nM |
| CC(C)c1ccc(OC2CCN(c3c([N+](=O)[O-])c(=O)n(C)c4ccc(F)cc34)CC2)cc1 [Example 2, 6-fluoro-4-(4-(4-isopropylphenoxy)piperidin-1-yl)-1-methyl-3-nitroquinolin-2(1H)-one] | 340 | – | – | – |
| Cc1cccc(OC2CCN(c3c([N+](=O)[O-])c(=O)n(C)c4ccc(F)cc34)CC2)c1 [Example 4, 6-fluoro-1-methyl-3-nitro-4-(4-(m-tolyloxy)piperidin-1-yl)quinolin-2(1H)-one] | 440 | – | – | – |
| Cn1c(=O)c([N+](=O)[O-])c(N2CCC(Oc3cccc4[nH]ncc34)CC2)c2cc(F)ccc21 [Example 5, 4-(4-((1H-indazol-4-yl)oxy)piperidin-1-yl)-6-fluoro-1-methyl-3-nitroquinolin-2(1H)-one] | 10000 | – | – | – |
| Cn1c(=O)c([N+](=O)[O-])c(N2CCC(Oc3cccc(C#N)c3)CC2)c2cc(F)ccc21 [Example 6, 3-((1-(6-fluoro-1-methyl-3-nitro-2-oxo-1,2-dihydroquinolin-4-yl)piperidin-4-yl)oxy)benzonitrile] | 10000 | – | – | – |
| Cn1c(=O)c([N+](=O)[O-])c(N2CCC(Oc3cccc(Cl)c3)CC2)c2cc(F)ccc21 [Example 7, 4-(4-(3-chlorophenoxy)piperidin-1-yl)-6-fluoro-1-methyl-3-nitroquinolin-2(1H)-one] | 2300 | – | – | – |
| COc1ccc(C(F)(F)F)cc1OC1CCN(c2c([N+](=O)[O-])c(=O)n(C)c3ccc(F)cc23)CC1 [Example 8, 6-fluoro-4-(4-(2-methoxy-5-(trifluoromethyl)phenoxy)piperidin-1-yl)-1-methyl-3-nitroquinolin-2(1H)-one] | 320 | – | – | – |
| Cn1c(=O)c([N+](=O)[O-])c(N2CCC(Oc3cccc(F)c3)CC2)c2cc(F)ccc21 [Example 9, 6-fluoro-4-(4-(3-fluorophenoxy)piperidin-1-yl)-1-methyl-3-nitroquinolin-2(1H)-one] | 790 | – | – | – |
| Cn1c(=O)c(C#N)c(N2CCC(Oc3ccc(F)cc3)CC2)c2nc(Cl)ccc21 [Example 20, 6-chloro-4-(4-(4-fluorophenoxy)piperidin-1-yl)-1-methyl-2-oxo-1,2-dihydro-1,5-naphthyridine-3-carbonitrile] | 870 | 430 | 16000 | – |
| Cc1cccc(OC2CCN(c3c(C#N)c(=O)n(C)c4ccc(Cl)nc34)CC2)c1 [Example 22, 6-chloro-1-methyl-2-oxo-4-(4-(m-tolyloxy)piperidin-1-yl)-1,2-dihydro-1,5-naphthyridine-3-carbonitrile] | 620 | 150 | 5700 | – |
| Cn1c(=O)c(C#N)c(N2CCC(Oc3cc(F)ccc3Cl)CC2)c2nc(Cl)ccc21 [Example 23, 6-chloro-4-(4-(2-chloro-5-fluorophenoxy)piperidin-1-yl)-1-methyl-2-oxo-1,2-dihydro-1,5-naphthyridine-3-carbonitrile] | – | 66000 | 58000 | IC50 ([7]; Mus musculus, MC-38): 10000 nM |
| Cc1cc(Br)ccc1OC1CCN(c2c(C#N)c(=O)n(C)c3ccc(Cl)nc23)CC1 [Example 26, 4-(4-(4-bromo-2-methylphenoxy)piperidin-1-yl)-6-chloro-1-methyl-2-oxo-1,2-dihydro-1,5-naphthyridine-3-carbonitrile] | 2700 | – | – | IC50 ([7]; Mus musculus, MC-38): 10000 nM |
| Cn1c(=O)c(C#N)c(N2CCC(Oc3cccc(Cl)c3)CC2)c2nc(Cl)ccc21 [Example 27, 6-chloro-4-(4-(3-chlorophenoxy)piperidin-1-yl)-1-methyl-2-oxo-1,2-dihydro-1,5-naphthyridine-3-carbonitrile] | 73 | – | – | IC50 ([7]; Mus musculus, MC-38): 7400 nM |
| Cc1cc(F)cc(OC2CCN(c3c(C#N)c(=O)n(C)c4ccc(Cl)nc34)CC2)c1 [Example 28] | – | 1600 | 5400 | IC50 [7]: 10000 nM |
| Cn1c(=O)c(C#N)c(N2CCC(Oc3ccc(C#N)cc3)CC2)c2nc(Cl)ccc21 [Example 32, 6-chloro-4-(4-(4-cyanophenoxy)piperidin-1-yl)-1-methyl-2-oxo-1,2-dihydro-1,5-naphthyridine-3-carbonitrile] | – | – | – | IC50 ([7]; Mus musculus, MC-38): 10000 nM |
| COc1ccccc1OC1CCN(c2c(C#N)c(=O)n(C)c3ccc(Cl)nc23)CC1 [Example 35, 6-chloro-4-(4-(2-methoxyphenoxy)piperidin-1-yl)-1-methyl-2-oxo-1,2-dihydro-1,5-naphthyridine-3-carbonitrile] | 210 | 290 | 12000 | – |
| CC(C)c1ccc(OC2CCN(c3c(C#N)c(=O)n(C)c4ccc(Cl)nc34)CC2)cc1 [Example 37, 6-chloro-4-(4-(4-isopropylphenoxy)piperidin-1-yl)-1-methyl-2-oxo-1,2-dihydro-1,5-naphthyridine-3-carbonitrile] | 1100 | 490 | 240000 | – |
| Cn1c(=O)c(C#N)c(N2CCC(Oc3ccccc3F)CC2)c2nc(Cl)ccc21 [Example 44, 6-chloro-4-(4-(2-fluorophenoxy)piperidin-1-yl)-1-methyl-2-oxo-1,2-dihydro-1,5-naphthyridine-3-carbonitrile] | 1500 | 1700 | 59000 | – |
| Cn1c(=O)c(C#N)c(N2CCC(Oc3cccc(F)c3)CC2)c2nc(Cl)ccc21 [Example 45, 6-chloro-4-(4-(3-fluorophenoxy)piperidin-1-yl)-1-methyl-2-oxo-1,2-dihydro-1,5-naphthyridine-3-carbonitrile] | 98 | – | – | IC50 ([7]; Mus musculus, MC-38): 10000 nM |
